Measurements from patent publication EP0497399A1, “Process for evaluating skin irritancy” (THE PROCTER & GAMBLE COMPANY, priority 1991, dated 1992).
≈ marks a conversion by molar mass, not a printed value. Read-outs that look alike come from different tables or passages of the source. Marks after values point to notes of the source that are not given here.

Tests used:
[1] = MTT assay of cell viability in human skin cell co-cultures on nylon mesh; type: cell-based; conditions: human, huk/f skin cell co-culture
Protocol: (§4) The MTT assay measures the reduction of a tetrazolium dye by electron transport in mitochondria of viable cells, and subsequent intracellular trapping of the formazan product. • 1. […] It is a measure of cell viability, and is performed on all treatment meshes immediately following medium collection. The MTT assay quantitates the reduction and subsequent trapping of a yellow tetrazolium dye which is reduced by the electron transport chain of functional mitochondria to a purple formazan dye. Briefly, MTT (3-[4,5-Dimethylthiazol-2yl]-2,5-diphenyltetrazolium bromide; Sigma Catalog #M-2128) powder is diluted in cell culture medium (0.5 mg./ml.) and pre-warmed to 37 °C before use. One ml of this dye solution is aliquoted onto each mesh, and the meshes are then incubated 3 hours at 37 °C and 5% CO₂. After incubation, the MTT is aspirated, and 2 ml. of pure isopropanol is used to extract the reduced dye for two hours at room temperature. The meshes are removed from the culture well and extraction solvent mixed by stirring before aliquoting for absorbance readings. The absorbance of each extract is read at 540 nm on a Biotek EL-312 (96 well) spectrophotometer. • 2.

HuK cells = type: cell-based, human
Protocol: Human neonatal foreskin keratinocytes are grown in keratinocyte growth medium-KGM complete with epidermal growth factor, insulin, hydrocortisone, anti-microbial agents and supplemented with bovine pituitary extract. (This medium is available from Clonetics). Cultures are maintained in a humidified atmosphere at 37 °C and 5% carbon dioxide throughout the experiment. Four days prior to treatments keratinocytes are trypsinized and subcultured. KGM medium is used and Clonetics reagents and methods used as per their standard protocol. Cells are plated at a density of about 33,000/ well in a 24 well Corning culture plate.
In preliminary experiments with HuK/F co-cultures, two vital dye assays measuring cell viability can be used. […] The MTT assay quantitates the reduction and subsequent trapping of a yellow tetrazolium dye which is reduced by the electron transport chain of functional mitochondria to a purple formazan dye. […] The meshes are removed from the culture well and extraction solvent mixed by stirring before aliquoting for absorbance readings. The absorbance of each extract is read at 540 nm on a Biotek EL-312 (96 well) spectrophotometer. • 2. The Neutral Red Bioassay is described in Borenfreund, E., and Puerner, J., A Simple Quantitative Procedure Using Monolayer Cultures for Cytotoxicity Assays (HTD/NR-90), J. Tissue Cult. […]

HuF cells = type: cell-based, human
Protocol: Human neonatal fibroblasts are grown in Dulbecco's Modified Eagles Medium (DMEM) supplemented with 10% Fetal Bovine Serum (FBS) (provided by Marrow-Tech). This maintenance medium is the same formulation as described for the above co-cultures with the substitution of 10% FBS for the 2% Ultroser-G medium. Twenty-four hours prior to treatment fibroblasts are trypsinized (Gibco, Trypsin EDTA, Catalog #610-5200AG) by placing 2 ml of 0.25% trypsin over PBS washed cells. After about 1 minute the trypsin is aspirated and cells observed microscopically for rounding up and release from the culture dish. […]
In preliminary experiments with HuK/F co-cultures, two vital dye assays measuring cell viability can be used. […] The MTT assay quantitates the reduction and subsequent trapping of a yellow tetrazolium dye which is reduced by the electron transport chain of functional mitochondria to a purple formazan dye. […] The meshes are removed from the culture well and extraction solvent mixed by stirring before aliquoting for absorbance readings. The absorbance of each extract is read at 540 nm on a Biotek EL-312 (96 well) spectrophotometer. • 2. The Neutral Red Bioassay is described in Borenfreund, E., and Puerner, J., A Simple Quantitative Procedure Using Monolayer Cultures for Cytotoxicity Assays (HTD/NR-90), J. Tissue Cult. […] The cells are evaluated using the standard neutral red assay methodology. […]

in vitro = conditions: human, keratinocyte monolayer
From the text: The human keratinocyte monolayer cultures (available from Clonetics) were characterized using a fluorescein-labeled anti-cytokeratin antibody that stained the cytoskeleton of keratinocytes preferentially. This stain confirms that the cells are epithelial in nature.

HuK/F cultures [2] = assay: Lactate dehydrogenase release into culture medium (cytotoxicity); type: cell-based, human; conditions: 48 hours
Protocol: (§1) For each HuK/F experiment, on a 24 well plate, 1 test material is evaluated at 4 concentrations (in quadruplicate wells per each concentration). In addition, 4 wells serve as medium control, and 4 wells as sodium dodecyl sulfate positive control. For each material evaluated, a dose-range finding study is performed at 0.001, 0.01, 0.1 and 1.0% (w/v) concentrations to determine the concentration eliciting minimum and maximum cytotoxicity in the MTT assay of cell viability. Based on the dose-range finding study, a range of test material concentrations is selected to determine the concentration eliciting minimum and maximum cytotoxicity in the MTT assay of cell viability. Based on the dose-range finding study, concentrations are selected at the maximal cytoxicity level and minimum level and at two 1/3 log intervals between these concentrations (e.g., if the maximum cytoxicity was at 1% with no cytotoxicity or cell death at 0.1% the concentrations evaluated subsequently would be 0.1, 0.3, 0.6 and 1%).
(§2) On treatment day, growth medium is aseptically aspirated, and the cell meshes are treated with two ml of test medium per well. Medium alone served as a no treatment control with 0.01% sodium dodecyl sulfate acting as a positive control (n=4 wells/group). All test plates are incubated at 37 °C and 5% carbon dioxide for 4 to 72 hours. Observations are made (e.g. changes in medium color) during the treatment period.
(§3) • 1. Place one untreated, precut mesh (no cells) into one or more wells to determine the background non-specific binding (NSB) of MTT to mesh and to act as absolute blank. In remaining wells place 1 mesh per well of the fibroblast/keratinocyte co-cultures. Add 2 ml of the assay medium which is supplied with the test kit. (Marrow-Tech supplies a medium). • 2. Remove medium from each well and add 2 ml/well of test agent diluted in assay medium. Refeed untreated control mesh and mesh without cells with assay medium. • 3. Incubate 48 hours at 37 °C in 5%. carbon dioxide atmosphere. • 4. Prepare a solution of 0.5 mg/ml MTT (Sigma Chemical Co. Catalog #M-2128) in assay medium. Centrifuge MTT/medium for 5 minutes at 3000 RPM to pellet undissolved crystals, then prewarm MTT in a 37 °C waterbath. • 5. Remove spent medium. Use 1 ml aliquot to analyze for lactate dehydrogenase and N-acetylglucosaminidase release and glucose; 1 ml can be saved under nitrogen at -70 °C for PGE2 analysis at a later time. • 6. Add 1 ml/well MTT/medium solution. Add medium without MTT to absolute blank well. Incubate cultures at 37 °C, 5% carbon dioxide for 3 hours. • 7. Remove MTT/medium and wash each mesh 2 times with 1 ml Dulbecco's phosphate buffered saline with calcium and magnesium (PBS). About 2-5 minutes each wash. • 8. Remove second PBS wash and add 2 ml isopropanol/well at room temperature 2 hours. This will extract the formazan from mitochondria of cells into the supernatant. (Note: the amount of MTT taken up by a cell culture and subsequently released by solvent extraction is proportional to the number of viable cells within the culture). Remove meshes from test well and stir on shaking vortex mixer. • 9. Transfer 200 microliter aliquots of the blue spent solvent from each well to a 96 well microtiter plate and read absorbance at 540 nm blanking to absolute blank (well not exposed to the MTT). The wells containing the NSB meshes should be subtracted from the test well absorbances before performing calculations below.

HuK/F cultures [3] = assay: N-acetylglucosaminidase release into culture medium (cytotoxicity); type: cell-based, human; conditions: 48 hours
Protocol: as §1, §2, §3

HuK/F cultures [4] = assay: MTT assay of cell viability in human skin cell co-cultures on nylon mesh; type: cell-based
Protocol: as §4

[5] = human, huk/f skin cell co-culture, 48 h

## CCCCCCCCCCCCOS(=O)(=O)[O-].[Na+] [Sodium Dodecyl Sulfate]
[1]; concentration w/v giving 50% decrease in MTT dye uptake vs untreated control, HuK/F, 48 hours, read-out: MTT-50 Endpoint (Concentration w/v)
  CC50 at 48 h: 57 µg/mL
HuK cells
  more sensitive than HuK/F cultures (decrease in cell viability, NR assay): about 10 fold
HuF cells
  more sensitive than HuK/F cultures (decrease in cell viability, NR assay): about 10 fold
In vitro
  fold induction at 48 h: ~2.5

## CC(C)(C)CC(C)(C)c1ccc(OCCOCC[N+](C)(C)Cc2ccccc2)cc1 [Benzethonium Chloride]
HuK/F cultures [2]; 0.001 % w/v
  Lactate Dehydrogenase Release: 433.5+ U/L
HuK/F cultures [2]; 0.003 % w/v
  Lactate Dehydrogenase Release: 1408.0+* U/L
HuK/F cultures [2]; 0.006 % w/v
  Lactate Dehydrogenase Release: 1344.0+* U/L
HuK/F cultures [2]; 0.01 % w/v
  Lactate Dehydrogenase Release: 1471.5+ U/L
HuK/F cultures [3]; 0.001 % w/v
  N-Acetylglucosaminidase Release: 21.20+ U/L
HuK/F cultures [3]; 0.003 % w/v
  N-Acetylglucosaminidase Release: 37.63+* U/L
HuK/F cultures [3]; 0.006 % w/v
  N-Acetylglucosaminidase Release: 37.10+* U/L
HuK/F cultures [3]; 0.01 % w/v
  N-Acetylglucosaminidase Release: 21.73+* U/L

## Ammonium Coconut Alkyl Ethoxylate 6.5 Sulfate [NH4CNAE6.5S]
HuK/F cultures [4]; [5]
  MTT-50 Endpoint (Concentration w/v): 0.019%

## CCCCCCCC/C=C\CCCCCCCC(=O)OCCOCC(OCCO)C1OCC(OCCO)C1OCCO (stereo not drawn) [Tween 80, Polyoxyethylenesorbitan Monooleate]
[1]
  CC50 at 48 h: 4300 µg/mL (≈ 7.11 mM)

## Benzalkonium Chloride
HuK/F cultures [4]; concentration w/v giving 50% decrease in MTT dye uptake vs untreated control, HuK/F, 48 hours
  MTT-50 Endpoint (Concentration w/v): 0.0007%
HuK/F cultures [2]; 0.0005 % w/v
  Lactate Dehydrogenase Release: 138.5+ U/L
HuK/F cultures [2]; 0.001 % w/v
  Lactate Dehydrogenase Release: 1032.0+* U/L
HuK/F cultures [2]; 0.005 % w/v
  Lactate Dehydrogenase Release: 1334.5+* U/L
HuK/F cultures [2]; 0.01 % w/v
  Lactate Dehydrogenase Release: 1236.5+* U/L
HuK/F cultures [3]; 0.0005 % w/v
  N-Acetylglucosaminidase Release: 14.95+ U/L
HuK/F cultures [3]; 0.001 % w/v
  N-Acetylglucosaminidase Release: 18.08+* U/L
HuK/F cultures [3]; 0.005 % w/v
  N-Acetylglucosaminidase Release: 19.93+* U/L
HuK/F cultures [3]; 0.01 % w/v
  N-Acetylglucosaminidase Release: 11.98+* U/L

## CCCCCCCCCCCC[N+](C)(C)[O-] [C12 DDAO, Dodecyl Dimethyl Amine Oxide]
[1]
  CC50 at 48 h: 180 µg/mL (≈ 0.785 mM)
HuK/F cultures [2]; 0.01 % w/v
  Lactate Dehydrogenase Release: 116.0+ U/L
HuK/F cultures [2]; 0.03 % w/v
  Lactate Dehydrogenase Release: 1270.0+ U/L
HuK/F cultures [2]; 0.06 % w/v
  Lactate Dehydrogenase Release: 1261.5+ U/L
HuK/F cultures [2]; 0.1 % w/v
  Lactate Dehydrogenase Release: 1196.0+ U/L
HuK/F cultures [3]; 0.01 % w/v
  N-Acetylglucosaminidase Release: 21.15 U/L
HuK/F cultures [3]; 0.03 % w/v
  N-Acetylglucosaminidase Release: 23.53+ U/L
HuK/F cultures [3]; 0.06 % w/v
  N-Acetylglucosaminidase Release: 23.33+ U/L
HuK/F cultures [3]; 0.1 % w/v
  N-Acetylglucosaminidase Release: 26.90+ U/L

## Ammonium Coconut Alkyl Ethoxylate 12 Sulfate [NH4CNAE12S]
HuK/F cultures [4]; [5]
  MTT-50 Endpoint (Concentration w/v): 0.025%
